We go through one compound from patent US20250040558A1, “ANTIMICROBIAL ACTIVITY OF CHLORITE-ENTRAINED POLYMERS” (CSP Technologies, Inc., priority 2021, published 2025).

One assay has as its system S. Newport. As to the kind of experiment: Reduction of S. Newport on sliced tomatoes. Particulars: 4° C. It counts as cell-based. Here is the method: The skins of sliced tomatoes were spot inoculated with S. Newport. Sliced tomatoes were sealed in a controlled environment containing ClO2 or a regular plastic seal. The inoculated tomato skins were removed and processed on days 0, 1, 2, 5 and 7, after which S. Newport was evaluated by plating onto XLT-4 agar.
S. Newport was grown in TSB at 37° C. for 18-24 hr. Bacteria was resuspended in E-pure water. Serial dilutions of the inoculum were plated onto XLT-4 plates and incubated at 37° C. for 18-24 hours.
Tomatoes were first prepared by rinsing with 70% ethanol and thoroughly rinsing with sterile e-pure water. Tomatoes were sliced using a sterile tomato slicer (Prince Castle, Inc) and placed in pre-labelled trays. Five tomatoes were sliced per Aptar tray (4×10.3×3.4 inches). The tomatoes were spiked by inoculating two slices of each tomato with 10 μL of S. Newport. Tomatoes were incubated at room temperature for 1 hr. After drying, each tray was heat sealed with a tray sealing instrument (Maxwell Chase Technologies) at a temperature of 390° F. For the experimental group, the film was treated with 0.63 g of chlorine dioxide. Trays were stored at 4° C. until specimen collection. For each treatment of 1 hr, 24 hr, 48 hr, and 5 days, and 7 days a control and a treated tray were evaluated. Tomato skins of spiked slices were collected and tested for the presence of S. Newport. […]

In a further assay the test system is Microsporidia. In words: Microsporidia spore viability on tomato slices (RK-13 culture, Calcofluor White). Format: cell-based. The conditions noted are these: 4° C. As for the experimental part:
Rabbit kidney (Rk-13) cell lines were maintained in flasks using 3.5% Fetal Bovine Serum (HIFBS) EMEM medium 1× antibiotics and antimycotics. Flasks were incubated at 37° C. and 5% CO2 until preparation of slides. 16-microwell slides were seeded with cells and grown in 10% (HIFBS) EMEM medium for 48 hours before inoculation with spores.
Fresh Microsporidia spores were propagated and harvested using RK-13 tissue cultures. The harvested medium containing cell debris and spores was filtered through a 5 μm filter, centrifuged at 2000 g for 15 minutes and counted using a hemocytometer.
Tomatoes were first prepared by rinsing with 70% ethanol and thoroughly rinsing with sterile e-pure water. Tomatoes were sliced using a sterile tomato slicer (Prince Castle, Inc) and placed in pre-labelled trays. Five tomatoes were sliced per Aptar tray (4×10.3×3.4 inches). The tomatoes were spiked by inoculating two slices of each tomato with 10 microliters of oocysts. Tomatoes were incubated at room temperature for 1 hr. […] For each treatment of 1 hr, 24 hr, 48 hr, and 5 days, and 7 days a control and a treated tray were evaluated. […]
Tomato slices spiked with Microsporidia were suspended in F12 media. […] Spore counts were taken using an epifluorescence microscope at 40× magnification and recorded.

Turning to `[O][Cl+][O-]` [chlorine dioxide], the entries for the “inactivation of S. Newport” value in the assay on S. Newport (film with 0.63 g chlorine dioxide) and in the assay with S. Newport (two days of treatment) were “effective in inactivation” and “complete inactivation”, respectively. Also, the Microsporidia spore viability entry is given as “completely inactivated” with Microsporidia (24 hours of treatment) and “effectively reduced spore viability” with Microsporidia (after one hour of treatment).
